Test results from patent US11667649B2, “Heteroaromatic macrocyclic ether chemotherapeutic agents” (Nuvalent, Inc., priority 2020, dated 2023).

Legend:
ALK-wt kinase domain = target: T1, ALK-wt kinase domain (Homo sapiens, UniProt Q9UM73); assay: Biochemical kinase assay, ALK-wt; conditions: 2 mM ATP substrate solution, read-out: Ki^app ALK-wt
T1 construct: TRKA-wt (1 nM, BPS Bio, 40280) kinase domains in buffer; purchased Carna 08-518
Procedure: (§1) First, 250 nL of compound dissolved in DMSO (100-fold of the desired concentration) was dispensed into a 384-well plate. A 12.5 μL substrate solution containing ATP (2 mM) and fluorogenic phosphorylation substrate AQT0101 (26 μM for ALK and ROS1, AssayQuant) or AQT0104 (26 μM for TRKA, AssayQuant) in buffer (50 mM HEPES pH 7.5, 0.01% Brij-35, 0.5 mM EGTA, 10 mM MgCl2) was added and mixed thoroughly. Then, a 12.5 μL kinase solution containing ALK-wt (1.5 nM, Carna, 08-518), ALK ALK L1196M/G1202R (3 nM, SignalChem, A19-12NG), ROS1-wt (0.6 nM, Carna, 08-163), ROS1-G2032R (0.5 nM, SignalChem, R14-12BG), or TRKA-wt (1 nM, BPS Bio, 40280) kinase domains in buffer ([…] HEPES pH 7.5, 0.01% Brij-35, 2% glycerol, 0.4 mg/mL BSA, 0.5 mM EGTA, and 10 mM MgCl2) was added and mixed thoroughly. The plate was sealed and read by SpectraMax Paradigm at λ=485 nm every 2 minutes for 120 minutes at 30° C. Initial rates of reaction (v) were calculated from the change in fluorescence intensity over time during the initial, linear portion of the reaction. Finally, apparent inhibitory constants (Ki^app) were determined from regression of v and I (inhibitor concentration) to Morrison Equation (E=enzyme concentration): […]

[1] = target: T2, ALK L1196M/G1202R kinase domain (Homo sapiens, UniProt Q9UM73, G1202R/L1196M); assay: Biochemical kinase assay, ALK L1196M/G1202R; conditions: 2 mM ATP substrate solution, read-out: Ki^app ALK-L1196M-G1202R
T2 construct: TRKA-wt (1 nM, BPS Bio, 40280) kinase domains in buffer; purchased SignalChem A19-12NG
Procedure: as §1

ROS1-wt kinase domain = target: T3, ROS1-wt kinase domain (Homo sapiens, UniProt P08922); assay: Biochemical kinase assay, ROS1-wt; conditions: 2 mM ATP substrate solution, read-out: Ki^app ROS1-wt
T3 construct: TRKA-wt (1 nM, BPS Bio, 40280) kinase domains in buffer; purchased Carna 08-163
Procedure: as §1

[2] = target: T4, ROS1-G2032R kinase domain (Homo sapiens, UniProt P08922, G2032R); assay: Biochemical kinase assay, ROS1-G2032R; conditions: 2 mM ATP substrate solution, read-out: Ki^app ROS1-G2032R
T4 construct: TRKA-wt (1 nM, BPS Bio, 40280) kinase domains in buffer; purchased SignalChem R14-12BG
Procedure: as §1

TRKA-wt kinase domain = target: T5, TRKA-wt kinase domain (Homo sapiens, UniProt P04629); assay: Biochemical kinase assay, TRKA-wt; conditions: 2 mM ATP substrate solution, read-out: Ki^app TRKA-wt
T5 construct: TRKA-wt (1 nM, BPS Bio, 40280) kinase domains in buffer; purchased BPS Bio 40280
Procedure: as §1

[3] = tested on: TPM3-NTRK1-wt IC50 / primary target (e.g. CD74-ROS1-wt) IC50, Ba/F3 cells; assay: Cell assay TRKA selectivity (TRKA potency divided by primary target potency); format: cell-based; conditions: for TPM3-NTRK1-wt/CD74-ROS1-G2032R: TRKA selectivity ratio: TPM3-NTRK1-wt IC50 / CD74-ROS1-G2032R IC50, Ba/F3 cells; for TPM3-NTRK1-wt/CD74-ROS1-wt: TRKA selectivity ratio: TPM3-NTRK1-wt IC50 / CD74-ROS1-wt IC50, Ba/F3 cells; for TPM3-NTRK1-wt/EML4-ALK-L1196M-G1202R: TRKA selectivity ratio: TPM3-NTRK1-wt IC50 / EML4-ALK-L1196M-G1202R IC50, Ba/F3 cells; for TPM3-NTRK1-wt/EML4-ALK-wt: TRKA selectivity ratio: TPM3-NTRK1-wt IC50 / EML4-ALK-wt IC50, Ba/F3 cells
In short: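 IL-3-independent Ba/F3 lines stably expressing TPM3-TRKA or the primary fusion (e.g. CD74-ROS1 wt) were exposed to 3-fold compound dilutions for 72 h. Viability was read by CellTiter-Glo luminescence, with IC50 from four-parameter logistic fit. Selectivity is TPM3-NTRK1 IC50 divided by primary-target IC50, binned A (>30-fold) to D (<1).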

SMILES	Ki (ALK-wt kinase domain) [nM]	Ki [1] [nM]	Ki (ROS1-wt kinase domain) [nM]	Ki [2] [nM]	Ki (TRKA-wt kinase domain) [nM]	TPM3-NTRK1-wt/CD74-ROS1-G2032R [3]	TPM3-NTRK1-wt/CD74-ROS1-wt [3]	TPM3-NTRK1-wt/EML4-ALK-L1196M-G1202R [3]	TPM3-NTRK1-wt/EML4-ALK-wt [3]
C[C@H]1Oc2cc(cnc2N)-c2c(C#N)ncn2Cc2ccnn2-c2ccc(F)cc21 [Compound 58]	< 50	< 50	< 50	< 50	> 500	–	–	–	–
Cc1nc2c(s1)Cc1nnn(CC3CC3)c1-c1cnc(N)c(c1)O[C@H](C)c1cc(F)ccc1-2 [Compound 114]	< 50	< 50	< 50	< 50	50 to 500	–	–	–	–
CC1Oc2cc(cnc2N)-c2c(C#N)cnn2Cc2cnn(C)c2-c2ccc(F)cc21 (centres unmarked) [Compound 60]	< 50	50 to 500	< 50	50 to 500	> 500	–	–	–	–
CCn1ncc2c1-c1cnc(N)c(c1)OC(C)c1cc(F)ccc1-n1cncc1C2 (centres unmarked) [Compound 38]	< 50	50 to 500	< 50	< 50	> 500	–	–	–	–
CCn1ncc2c1-c1ccc(F)cc1C(C)Oc1nc(cnc1N)-c1c(cnn1C)C2 (centres unmarked) [Compound 165]	< 50	50 to 500	< 50	50 to 500	50 to 500	–	–	–	–
C[C@H]1Oc2cc(cnc2N)-c2c(cnn2CC2CC2)Cc2cc(C(F)(F)F)nn2-c2ccc(F)cc21 [Compound 91]	< 50	< 50	< 50	< 50	50 to 500	–	–	–	–
CCn1ncc2c1-c1cnc(N)c(c1)O[C@H](C)c1cc(F)ccc1-n1nc(F)cc1C2 [Compound 71]	< 50	< 50	< 50	< 50	< 50	–	–	–	–
Cc1nc2c(s1)Cc1cnn(C(F)F)c1-c1cnc(N)c(c1)O[C@H](C)c1cc(F)ccc1-2 [Compound 72]	< 50	< 50	< 50	< 50	50 to 500	–	–	–	–
CCc1ncn2c1-c1cnc(N)c(c1)O[C@H](C)c1cc(F)ccc1-c1nn(C)cc1C2 [Compound 50]	< 50	< 50	< 50	< 50	< 50	–	–	–	–
CCn1ncc2c1-c1cnc(N)c(c1)OC(C)c1cc(F)ccc1-c1ncncc1C2 (centres unmarked) [Compound 42]	< 50	< 50	< 50	< 50	50 to 500	–	–	–	–
CCc1nn(C)c2c1-c1cnc(N)c(c1)OCc1cc(F)ccc1-n1nc(C)cc1C2 [Compound 55]	< 50	< 50	< 50	< 50	50 to 500	–	–	–	–
C[C@H]1Oc2cc(cnc2N)-c2c(C#N)noc2Cc2cn(C)nc2-c2ccc(F)cc21 [Compound 15]	< 50	< 50	< 50	< 50	> 500	–	–	–	–
CCn1ncc2c1-c1cnc(N)c(c1)O[C@H](C)c1cc(F)ccc1-c1nn(C)c(OC)c1C2 [Compound 157]	< 50	< 50	< 50	< 50	< 50	–	–	–	–
CCn1ncc2c1-c1cnc(N)c(n1)OC(C)c1cc(F)ccc1-c1nccn1C2 (centres unmarked) [Compound 163]	< 50	< 50	< 50	< 50	50 to 500	–	–	–	–
CCn1ncc2c1-c1cnc(N)c(c1)O[C@H](C)c1cc(F)ccc1-c1nn(C)c(Cl)c1C2 [Compound 28]	< 50	< 50	< 50	< 50	< 50	–	–	–	–
CCc1nn(C)c2c1-c1cnc(N)c(c1)O[C@H](C)c1cc(F)ccc1-c1nc(C)sc1C2 [Compound 173]	–	< 50	–	–	< 50	–	–	–	–
CCn1ncc2c1-c1cnc(N)c(c1)O[C@H](C)c1cc(F)ccc1-n1ncc(F)c1C2 [Compound 46]	< 50	< 50	–	< 50	< 50	–	–	–	–
C[C@H]1Oc2cc(cnc2N)-c2c(cnn2CC2(C)CC2)Cc2cn(C)nc2-c2ccc(F)cc21 [Compound 159]	< 50	< 50	–	–	> 500	–	–	–	–
CCc1c(C#N)nn2c1-c1cnc(N)c(c1)O[C@H](C)c1cc(F)ccc1-c1nn(C)cc1C2 [Example 6, (19R)-22-amino-3-ethyl-16-fluoro-10,19-dimethyl-20-oxa-5,6,10,11,23-pentaazapentacyclo[19.3.1.0^2,^6.0^8,^12.0^13,^18]pentacosa-1(24),2,4,8,11,13,15,17,21(25),22-decaene-4-carbonitrile]	–	–	–	–	–	A (bin A for very high selectivity, ratio>30-fold)	A (bin A for very high selectivity, ratio>30-fold)	C (bin C for moderate selectivity, ratio≥1)	A (bin A for very high selectivity, ratio>30-fold)
CCn1ncc2c1-c1cnc(N)c(n1)OC(C)c1cc(F)ccc1-c1nccn1C2 (centres unmarked) [Example 163, 3-ethyl-16-fluoro-19-methyl-20-oxa-3,4,8,11,23,25-hexaazapentacyclo[19.3.1.0^2,^6.0^8,^12.0^13,^18]pentacosa-1(24),2(6),4,9,11,13,15,17,21(25),22-decaen-22-amine]	–	–	–	–	–	A (bin A for very high selectivity, ratio>30-fold)	A (bin A for very high selectivity, ratio>30-fold)	C (bin C for moderate selectivity, ratio≥1)	A (bin A for very high selectivity, ratio>30-fold)
CCn1ncc2c1-c1cnc(N)c(c1)OC(C)c1cc(F)ccc1-n1cncc1C2 (centres unmarked) [Example 38, 3-ethyl-16-fluoro-19-methyl-20-oxa-3,4,10,12,23-pentaazapentacyclo[19.3.1.0^2,^6.0^8,^12.0^13,^18]pentacosa-1(24),2(6),4,8,10,13,15,17,21(25),22-decaen-22-amine]	–	–	–	–	–	A (bin A for very high selectivity, ratio>30-fold)	A (bin A for very high selectivity, ratio>30-fold)	C (bin C for moderate selectivity, ratio≥1)	B (bin B for high selectivity, ratio>10-fold)
Cc1cc2n(n1)-c1ccc(F)cc1[C@@H](C)Oc1cc(cnc1N)-c1c(c(C)nn1CC1CC1)C2 [Example 141, (19R)-3-(cyclopropylmethyl)-16-fluoro-5,10,19-trimethyl-20-oxa-3,4,11,12,23-pentaazapentacyclo[19.3.1.0^2,^6.0^8,^12.0^13,^18]pentacosa-1(24),2(6),4,8,10,13,15,17,21(25),22-decaen-22-amine]	–	–	–	–	–	A (bin A for very high selectivity, ratio>30-fold)	A (bin A for very high selectivity, ratio>30-fold)	A (bin A for very high selectivity, ratio>30-fold)	A (bin A for very high selectivity, ratio>30-fold)
CCn1ncc2c1-c1cnc(N)c(c1)O[C@H](C)c1cc(F)ccc1-c1nccn1C2 [Example 31, (19R)-3-ethyl-16-fluoro-19-methyl-20-oxa-3,4,8,11,23-pentaazapentacyclo[19.3.1.0^2,^6.0^8,^12.0^13,^18]pentacosa-1(24),2(6),4,9,11,13,15,17,21(25),22-decaen-22-amine]	–	–	–	–	–	A (bin A for very high selectivity, ratio>30-fold)	A (bin A for very high selectivity, ratio>30-fold)	C (bin C for moderate selectivity, ratio≥1)	A (bin A for very high selectivity, ratio>30-fold)
